In PMC3976565 (Science (New York, N.Y.), 2013):

Target: SelA-ΔN (Aquifex aeolicus, UniProt O67140)
Experiment: X-ray crystallography
Type: binding
Conditions: 3.25 A; covalent, Lys285; thiosulfate co-bound

Sequence of SelA-ΔN (O67140 62-452, stated change not applied): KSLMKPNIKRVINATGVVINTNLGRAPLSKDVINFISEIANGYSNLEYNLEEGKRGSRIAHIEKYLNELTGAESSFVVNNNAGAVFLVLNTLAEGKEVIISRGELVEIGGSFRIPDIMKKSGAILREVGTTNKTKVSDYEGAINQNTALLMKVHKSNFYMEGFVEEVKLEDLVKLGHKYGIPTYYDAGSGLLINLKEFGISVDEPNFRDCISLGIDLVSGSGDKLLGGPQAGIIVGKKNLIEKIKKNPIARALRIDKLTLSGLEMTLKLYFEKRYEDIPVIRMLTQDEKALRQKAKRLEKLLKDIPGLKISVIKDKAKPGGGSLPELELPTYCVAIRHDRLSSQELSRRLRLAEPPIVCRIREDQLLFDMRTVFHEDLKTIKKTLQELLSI

Which X-ray crystallography does the source give for `Cc1ncc(COP(=O)(O)O)c(C=O)c1O` [PLP] here?
The X-ray crystallography was “SelA-ΔN in complex with thiosulfate. PLP and thiosulfate ions (TS1 to TS3) are shown”.
